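GI50: concentration for 50% inhibition of growth. Definition used: TGI = concentration required for complete inhibition of growth.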
Tests used:
Assay in all cases: growth of human tumour cells (NCI), 384-well format
[1] = test system: EKVX NSCLC
[2] = test system: KM12 colon
[3] = test system: BT-549 breast
[4] = test system: NCI-H23 lung
[5] = test system: NCI-H522 lung
[6] = test system: MDA-MB-435 melanoma
[7] = test system: UO-31 renal
[8] = test system: T-47D breast
[9] = test system: SF-295 CNS
[10] = test system: TK-10 renal
[11] = test system: ACHN renal
[12] = test system: COLO 205 colon
[13] = test system: IGROV1 ovarian
[14] = test system: HT29 colon
[15] = test system: SF-268 CNS
[16] = test system: HCC-2998 colon
[17] = test system: M14 melanoma
[18] = test system: OVCAR-8 ovarian
[19] = test system: RPMI-8226 leukemia
[20] = test system: 786-0 renal
[21] = test system: OVCAR-3 ovarian
[22] = test system: A549 NSCLC
[23] = test system: HL-60(TB) leukemia
[24] = test system: MALME-3M melanoma
[25] = test system: MCF7 breast
[26] = test system: HOP-92 NSCLC
[27] = test system: MDA-MB-231 breast
[28] = test system: SW-620 colon
[29] = test system: SNB-75 CNS
[30] = test system: CAKI-1 renal
[31] = test system: SK-MEL-5 melanoma
[32] = test system: NCI-H460 NSCLC
[33] = test system: CCRF-CEM leukemia
[34] = test system: NCI-H226 lung
[35] = test system: NCI-H322M lung
[36] = test system: OVCAR-4 ovarian
[37] = test system: SNB-19 CNS
[38] = test system: U251 glioblastoma
[39] = test system: SK-OV-3 ovarian
[40] = test system: RXF 393 renal
[41] = test system: PC-3 prostate
[42] = test system: A498 renal
[43] = test system: OVCAR-5 ovarian
[44] = test system: K-562 leukemia
[45] = test system: DU-145 prostate
[46] = test system: HCT-116 colon
[47] = test system: HS 578T breast
[48] = test system: HOP-62 NSCLC
[49] = test system: HCT-15 colon
[50] = test system: SF-539 CNS
[51] = test system: MOLT-4 leukemia
[52] = test system: SK-MEL-28 melanoma
[53] = test system: LOX IMVI melanoma
[54] = test system: NCI/ADR-RES ovarian
[55] = test system: UACC-257 melanoma
[56] = test system: SN12C renal
[57] = test system: SR leukemia
[58] = test system: MDA-MB-468 breast
[59] = test system: UACC-62 melanoma
[60] = test system: SK-MEL-2 melanoma

SMILES: CCCS(=O)(=O)Nc1ccc(F)c(C(=O)c2c[nH]c3ncc(Cl)cc23)c1F
- GI50 [1]: 16.3 µM
- TGI [1]: 41.3 µM
- GI50 [2]: 14.3 µM
- TGI [2]: 33.3 µM
- GI50 [3]: 15.5 µM
- TGI [3]: 29.3 µM
- GI50 [4]: 18.3 µM
- TGI [4]: 37.8 µM
- GI50 [5]: 16.1 µM
- TGI [5]: 32.1 µM
- GI50 [6]: 0.681 µM
- TGI [6]: 17.7 µM
- GI50 [7]: 13.3 µM
- TGI [7]: 36.6 µM
- GI50 [8]: 17.7 µM
- TGI [8]: 55.6 µM
- GI50 [9]: 7.44 µM
- TGI [9]: 27.3 µM
- GI50 [10]: 10.3 µM
- TGI [10]: 28.4 µM
- GI50 [11]: 4.26 µM
- TGI [11]: 18.7 µM
- GI50 [12]: 0.144 µM
- TGI [12]: 13.6 µM
- GI50 [13]: 4.47 µM
- TGI [13]: 17.3 µM
- GI50 [14]: 0.71 µM
- TGI [14]: 17.1 µM
- GI50 [15]: 17.5 µM
- TGI [15]: 44.7 µM
- GI50 [16]: 20.6 µM
- TGI [16]: 35.1 µM
- GI50 [17]: 0.0582 µM
- TGI [17]: 2.1 µM
- GI50 [18]: 13.5 µM
- TGI [18]: 39.5 µM
- GI50 [19]: 4.76 µM
- TGI [19]: 15.7 µM
- GI50 [20]: 10.9 µM
- TGI [20]: 25.6 µM
- GI50 [21]: 13.5 µM
- TGI [21]: 29.7 µM
- GI50 [22]: 12.3 µM
- TGI [22]: 41.2 µM
- GI50 [23]: 11.2 µM
- TGI [23]: 23.3 µM
- GI50 [24]: 0.0363 µM
- TGI [24]: 0.118 µM
- GI50 [25]: 20.3 µM
- TGI [25]: 50.7 µM
- GI50 [26]: 15 µM
- TGI [26]: 36.3 µM
- GI50 [27]: 15.3 µM
- TGI [27]: 29.8 µM
- GI50 [28]: 31.6 µM
- TGI [28]: 60 µM
- GI50 [29]: 11.2 µM
- TGI [29]: 34.2 µM
- GI50 [30]: 6.54 µM
- TGI [30]: 46 µM
- GI50 [31]: 1.05 µM
- TGI [31]: 15 µM
- GI50 [32]: 6.96 µM
- TGI [32]: 21.3 µM
- GI50 [33]: 11.7 µM
- TGI [33]: 24 µM
- GI50 [34]: 16.5 µM
- TGI [34]: 32.6 µM
- GI50 [35]: 10.1 µM
- TGI [35]: 80.2 µM
- GI50 [36]: 21.1 µM
- TGI [36]: 59.1 µM
- GI50 [37]: 31.3 µM
- TGI [37]: 86 µM
- GI50 [38]: 13.1 µM
- TGI [38]: 27.2 µM
- GI50 [39]: 4.11 µM
- TGI [39]: 19.8 µM
- GI50 [40]: 4.12 µM
- TGI [40]: 13.8 µM
- GI50 [41]: 16.3 µM
- TGI [41]: 41 µM
- GI50 [42]: 5.21 µM
- TGI [42]: 20.3 µM
- GI50 [43]: 19.2 µM
- TGI [43]: 64.3 µM
- GI50 [44]: 11.3 µM
- TGI [44]: 23.7 µM
- GI50 [45]: 9.18 µM
- TGI [45]: 27.9 µM
- GI50 [46]: 8.39 µM
- TGI [46]: 23.8 µM
- GI50 [47]: 4.5 µM
- TGI [47]: 15.4 µM
- GI50 [48]: 13.3 µM
- TGI [48]: 32.5 µM
- GI50 [49]: 9.16 µM
- TGI [49]: 22 µM
- GI50 [50]: 15.1 µM
- TGI [50]: 35.3 µM
- GI50 [51]: 12.3 µM
- TGI [51]: 24.9 µM
- GI50 [52]: 0.0544 µM
- TGI [52]: 0.549 µM
- GI50 [53]: 2.64 µM
- TGI [53]: 15.9 µM
- GI50 [54]: 17.1 µM
- TGI [54]: 33.6 µM
- GI50 [55]: 0.183 µM
- TGI [55]: 1.18 µM
- GI50 [56]: 19.6 µM
- TGI [56]: 68.3 µM
- GI50 [57]: 3.93 µM
- TGI [57]: 14.2 µM
- GI50 [58]: 10.3 µM
- TGI [58]: 23.5 µM

SMILES: O=NN(CCCl)C(=O)NCCCl
- GI50 [3]: 36 µM
- GI50 [5]: 32.4 µM
- GI50 [9]: 25.4 µM
- TGI [9]: 73 µM
- GI50 [59]: 19.4 µM
- GI50 [60]: 61.5 µM
- GI50 [15]: 15.9 µM
- GI50 [17]: 69.9 µM
- GI50 [18]: 97.8 µM
- GI50 [19]: 20 µM
- TGI [19]: 48.7 µM
- GI50 [20]: 43.3 µM
- GI50 [23]: 15.1 µM
- TGI [23]: 28.5 µM
- GI50 [24]: 75.9 µM
- GI50 [27]: 55.9 µM
- GI50 [28]: 54.2 µM
- GI50 [29]: 26.7 µM
- GI50 [30]: 81.2 µM
- GI50 [33]: 22.3 µM
- TGI [33]: 40.9 µM
- GI50 [37]: 56.2 µM
- GI50 [38]: 23.9 µM
- GI50 [40]: 56.9 µM
- GI50 [44]: 46.5 µM
- GI50 [46]: 49.8 µM
- GI50 [48]: 34.6 µM
- GI50 [49]: 46.5 µM
- GI50 [50]: 24.4 µM
- TGI [50]: 90.1 µM
- GI50 [51]: 15.6 µM
- TGI [51]: 29.5 µM
- GI50 [53]: 24.2 µM
- GI50 [56]: 74.1 µM
- GI50 [58]: 23.7 µM

From PubChem BioAssay (NCI)
